Four molecules from patent US6248309A, “Gums containing antimicrobial agents” (priority 1999, dated 2001) can be followed below.

In general, MIC refers to the least concentration at which growth counts as inhibited.

For data set [1], the system named is Actinomyces viscosus (AV). Description: MIC of agents alone, in pairs and in three-agent combination (Example 2). The note with it: agent used alone. In kind it is cell-based, Actinomyces viscosus ATCC 19246. The text has this: (§1) In addition, the example describes how the MIC of antimicrobial agents in the combinations are reduced compared to the MIC of those antimicrobial agents alone and the MIC of those agents in various pairings. Numerous combinations of the antimicrobial agents described herein were combined to form combinations comprising three antimicrobial agents or triplets. Each of the formed triplets included either cedarwood oil or berberine hydrochloride.
(§2) The protocol used was a variation of the procedure described above in Example 1. The assay was carried out in the two-dimensional array of a 96-well plate. In order to evaluate three agents, two of the agents were paired against the third agent. For example, varying concentrations of antimicrobial agent A plus antimicrobial agent B versus varying concentrations of antimicrobial agent C were evaluated on one 96-well plate. The procedure was repeated with the other two possible pairings, i.e., A+C with B, and B+C with A. Accordingly, each triplet required three assays in order to assess each of the three possible pairings.
(§3) The bacterial innoculum was prepared as described in Example 1.
(§4) A sterile polystyrene 96-well plate was used to dilute the antimicrobial agents A, B and C. Using aseptic technique, 100 microliters of distilled water was placed in each test well. The dilution scheme was separated into two parts. First, the dilution of the combined agents A and B and then second, the dilution of agent C. A dilution of agents A and B was accomplished by placing 50 microliters of stock solution for agent A in the first well of each column. Next, 50 microliters of stock solution for agent B was added to each of the first wells of each column. Accordingly, the first well of each column included 50 microliters of stock solution for agent A and 50 microliters of stock solution for agent B. 100 microliters from the first row in each column was then transferred to the next well in the column and so on down the column. Each transfer was a one-half dilution of the preceding concentration.
(§5) The dilution of antimicrobial agent C was accomplished by adding 100 microliters of agent C stock solution to the first well of each row. 100 microliters from the first well in each row was then transferred to the next well and so on across the row of test wells. Each transfer was a one-half dilution of the preceding concentration. FIG. 1 is a schematic illustration of the concentrations of antimicrobial agents A, B and C derived from the dilution scheme described above. […] The concentration of agent C decreases across a row from left to right. […]
(§6) The 96-well plate was then incubated under conditions that varied by microorganism. […] The plate was then read for microbial growth with a spectrophotometer by optical density. […]

Data set [2] concerns Fusobacterium nucleatum (FN). The description is as above. In kind it is cell-based, Fusobacterium nucleatum ATCC 10933.
Text: as §1, §2, §3, §4, §5, §6

The test system of data set [3] is Porphyromonas gingivalis (PG). The data set is described as above. In kind it is cell-based, Porphyromonas gingivalis ATCC 33277.
Text: as §1, §2, §3, §4, §5, §6

Data set [4] relates to Streptococcus mutans (SM). The description is as above. In kind it is cell-based, Streptococcus mutans ATCC 25175. As to conditions: agent used alone.
Text: as §1, §2, §3, §4, §5, §6

Data set [5] deals with Streptococcus sanguis (SS). Described as above. In kind it is cell-based, Streptococcus sanguis ATCC 49295. The note with it: agent used alone.
Text: as §1, §2, §3
A sterile polystyrene 96-well plate was used to dilute the antimicrobial agents A, B and C. Using aseptic technique, 100 microliters of distilled water was placed in each test well. The dilution scheme was separated into two parts. First, the dilution of the combined agents A and B and then second, the dilution of agent C. A dilution of agents A and B was accomplished by placing 50 microliters of stock solution for agent A in the first well of each column. Next, 50 microliters of stock solution for agent B was added to each of the first wells of each column. […]
as §6

In data set [6] the test system is Campylobacter rectus (CR). The data set is described as above. The class given is cell-based. As to conditions: read-out: MIC, individual agent alone.
Text: as §1, §2, §3
A sterile polystyrene 96-well plate was used to dilute the antimicrobial agents A, B and C. […]
as §6

Data set [7] is classed as in vivo, human volunteers. As to conditions: in vivo. The method, then:
The saliva samples were refrigerated until analysis.
To either 2.7 grams unchewed gum sample or the remaining bolus of chewed gum, was added 3.0 millileters of internal standard (Hesperetin) in methanol, 6.0 milliliters hexane and 3.0 milliliters distilled water. Samples were homogenized using a Polytron Homogenizer model PT10/35 from Brinkmann Instruments, fitted with a PTA10TS generator for at least 30 seconds on ice, or until no lumps of non-dispersed gum were visible in the sample. Samples were then centrifuged in a Dynac Tabletop Centrifuge at top speed for ten minutes. The lower, amber, aqueous/methanol layer were then filtered through 25 millimeter, 0.45 micrometer nylon Acrodisc syringe filters from Gelman into 4 milliliter autosampler vials and tightly capped with polytetrafluorothylene lined septum in open-top screw caps. These samples were then analyzed using high pressure liquid chromatography for glabridin and/or glycyrrhizic and 18β-glycyrrhetinic acid, and were quantitated against a 4-point linear curve prepared by spiking approximately 2.7 grams unchewed samples of Wrigley Extra Sugarfree Peppermint gum with known levels of purified glabridin, glycyrrhizic acid monoammonium salt and 18β-glycyrrhetinicacid.
For the analysis of the gum bolus, both chewed and unchewed, a Polytron Homogenizer, described above was used. The gum sample was placed in a heavy wall glass tube. Internal standard ([…]) ethyl acetate ([…]) and water ([…]) were added. The sample was homogenized for approximately 30 seconds, or until no particles could be seen. The tubes were then centrifuged for 10 minutes on a clinical centrifuge at maximum speed. The supernatant was injected directly onto the gas chromatograph. The oven program was modified to allow resolution of ROF1 components from those of the peppermint flavoring. The gas chromatograph was calibrated using a three point standard curve to quantify the following components: menthol (flavor); geraniol (oil geraniol); cedrene, thujopsene (RC1); pinene, cineol, camphor, bornyl acetate (ROF1). The initial temperature was decreased from 140° C. to 100° C. The temperature gradient was changed from 10° C./minute to 4° C./minute. The split ratio was 50:1, and injection volume was 1 μL as per the method. A cleanup gradient was run every fifth sample as described previously.
A recovery study was performed in triplicate using blank Wrigley's Peppermint Gum (chewed and unchewed) spiked with stand and solution. Recovery was calculated relative to a direct standard consisting of spike solution without sample matrix.

The conditions of data set [8]: for Above MIC in Saliva (Y/N): concentration in saliva at any time above MIC relative to Porphyromonas gingivalis.
Procedure: (§11) Ten volunteers chewed 2.7 grams samples of each gum formulation and provided saliva samples at intervals and the gum bolus at the end of the 25 minute chewing period. High pressure liquid chromatography and gas chromatography were used to analyze the gum bolus and saliva non-volatile and volatile components, respectively.
(§12) Saliva samples were collected from each of the individuals prior to chewing 2.7 grams of gum, and at 1.0, 2.5, 5.0, 10.0, and 25.0 minutes while chewing the gum. The saliva samples were refrigerated until analysis. The gum bolus that remained after 25 minutes was saved and extracted immediately or stored refrigerated until extraction for analysis.
(§13) Samples were Vortex-mixed in Multi-tube vortex mixer for one minute and then centrifuged at top speed in clinical centrifuge for two minutes. Supernatants were carefully transferred to 1 milliliter glass shell vials and capped. Analysis was carried out either by isocratic elution for glabridin-only samples, or gradient elution for the samples containing the glycyrrhizic and 18β-glycyrrhetinic acids using high pressure liquid chromatography. Glabridin concentrations were converted to GLY concentrations by taking the weight percent glabridin in GLY to be 2.74 percent.
(§14) The calibration curve was prepared using spiked blank saliva.
(§15) For saliva, the essential oils of menthol, cedarwood oil, geraniol and Rosmarinus officianalis were determined by capillary gas chromatography. The split ratio was 25:1. The injection volume was 2 μL. Four hundred μL of saliva was extracted from the 1 milliliter of ethyl acetate containing an internal standard (hexadecane) in 1.5 milliliter Eppendorf tubes. After centrifugation, the organic layer was injected directly into the Hewlett-Packard 6890 gas chromatograph. […] For this reason, only the samples from 0 to 10 minutes were analyzed. A cleanup gradient was run from 190 to 300° C. every fifth sample to remove less volatile interferences from the column.
Another data set can be described thus: clinical. As to conditions: human, in vivo.
The subject of data set [9] is Actinomyces viscosus (AV). Description: MIC of agents alone and in two-agent combination (Example 1). The class given is cell-based, Actinomyces viscosus ATCC 19246. The note with it: concentration of TB1 (agent A). The method, then:
(§7) The following example illustrates how the MIC of individual antimicrobial agents that are combined were determined and also illustrates how the MIC of the antimicrobial agents in combination were determined.
(§8) A microtiter plate was used to dilute the antimicrobial agents to varying concentrations in order to determine the MIC of those antimicrobial agents alone and the MIC of the agents when combined.
(§9) A bacterial culture was incubated at 37° C. Prior to the dilution of the antimicrobial agents as described below, the bacterial culture was spun down at 2,000 rpm into a pellet and resuspended in a solution of buffered phosphate. The innoculum was normalized with a spectrophotometer to an optical density at 550 nanometers of between 0.180-0.220 (equivalent to 5.0×10^7 colony forming units, CFU per milliliter). The innoculum was set aside until the completion of the antimicrobial agent dilution. […]
(§10) Following 48 hours of incubation, the incubated plate was read for microbial growth with a spectrophotometer by optical density (OD). The well containing the lowest dilution achievable for each agent with a spectrophotometer reading below 0.05 OD (i.e., no detectable microbial growth) was considered representative for the combination. The MIC for each agent in the combination was determined by accounting for the starting stock solution concentration and the resulting dilutions in the 96-well plate. […]

Data set [10] has as its system Fusobacterium nucleatum (FN). The data set is described as above. As to conditions: concentration of TB1 (agent A). In kind it is cell-based, Fusobacterium nucleatum ATCC 10933. The method, then: as §7, §8, §9, §10
Data set [11] relates to Porphyromonas gingivalis (PG). Described as above. The class given is cell-based, Porphyromonas gingivalis ATCC 33277. The note with it: concentration of TB1 (agent A). The method, then: as §7, §8, §9, §10
In data set [12] the test system is Streptococcus mutans (SM). The data set is described as above. In kind it is cell-based, Streptococcus mutans ATCC 25175. As to conditions: concentration of TB1 (agent A). The procedure: as §7, §8, §9, §10
Data set [13] has as its system Streptococcus sanguis (SS). The description is as above. The class given is cell-based, Streptococcus sanguis ATCC 49295. The note with it: concentration of TB1 (agent A). The method, then:
as §7, §8, §9, §10

“And” between values parts separate entries of the source, which are not always exact repeats. Equal values may be shown once. Where a name gives a salt, the structure may show the parent alone.

Procedure for clinical: as §11, §12, §13, §14, §15

Turning to `COc1ccc2cc3[n+](cc2c1OC)CCc1cc2c(cc1-3)OCO2` [BX1, 5,6-dihydro-9,10-dimethoxybenzo[g]-1,3-benzodioxolo [5,6-a] quinolizinium], the “MIC, individual agent alone” value in [1] (AV) is 62.5 µg/mL; in data set [2] (FN, agent used alone), 62.5 µg/mL; in data set [3] (PG, agent used alone) it was 15.6 µg/mL; in [4] (SM), 31.3 µg/mL and 62.5 µg/mL; in [5] (SS), 62.5 µg/mL. In addition, the MIC in data set [1] (Actinomyces viscosus, read-out: MIC, individual agent alone, AV) stood at 31.3 µg/mL; in data set [2] (Fusobacterium nucleatum, read-out: MIC, individual agent alone), 62.5 µg/mL; in [3] (Porphyromonas gingivalis, read-out: MIC, individual agent alone), 15.6 µg/mL; in data set [4] (Streptococcus mutans, read-out: MIC, individual agent alone, SM) it was 31.3 µg/mL; in data set [5] (Streptococcus, read-out: MIC, individual agent alone, SS), 31.3 µg/mL; in data set [6] it was 125 µg/mL.
`CC1(C)[C@@H](O)CC[C@]2(C)[C@H]3C(=O)C=C4[C@@H]5C[C@@](C)(C(=O)O)CC[C@]5(C)CC[C@@]4(C)[C@]3(C)CC[C@@H]12` [GA, 18β-Glycyrrhetinic acid]: the “Release from Chewed Gum Bolus after 25 min” value in data set [7] came to 15%. Besides, the “Above MIC in Saliva (Y/N)” value in [8] is on record as “No”. In the data set “clinical”, the concentration at 1 min amounted to 1.8 µg/mL, the concentration at 2.5 min was 1.5 µg/mL, the concentration at 5 min amounted to 1.6 µg/mL and the concentration at 10 min came out at 1.8 µg/mL. In the data set “clinical”, this molecule returned a concentration at 25 min of 2.3 µg/mL.
As to `CC1(C)[C@@H](O[C@H]2O[C@H](C(=O)O)[C@@H](O)[C@H](O)[C@H]2O[C@@H]2O[C@H](C(=O)O)[C@@H](O)[C@H](O)[C@H]2O)CC[C@]2(C)[C@H]3C(=O)C=C4[C@@H]5C[C@@](C)(C(=O)O)CC[C@]5(C)CC[C@@]4(C)[C@]3(C)CC[C@@H]12` [GR, Glycyrrhizic Acid, Monoammonium salt], in [7], the “Release from Chewed Gum Bolus after 25 min” value was 85%. Moreover, in [8], the “Above MIC in Saliva (Y/N)” value is reported as “Yes”. Also, the “Rate of release from gum” value in data set [8] (human, in vivo) is “released from a gum base less quickly and over a longer period of time”. For the same molecule, the “Maintenance of concentration in oral cavity above MIC” value in data set [8] (in words, released from a gum composition) is reported as “maintain a concentration in the oral cavity at a level above the MIC”. Further, in “clinical”, the concentration at 1 min is 3100 µg/mL, the concentration at 2.5 min came to 111 µg/mL, the concentration at 5 min came to 55 µg/mL and the concentration at 10 min was 30 µg/mL. The molecule further returned a concentration at 25 min in the data set “clinical” of 10 µg/mL.
Turning to N-cocamidopropyl-dimethylglycine [TB1], the “MIC of Cocamidopropyl Dimethylglycine alone and when combined with Agent B” value turned out to be 28.9 µg/mL in data set [9]; 45.4 µg/mL in [10]; 16.8 µg/mL in [11]; 22.8 µg/mL in data set [12]; 30.2 µg/mL in [13].
